Results published in US20110124579A1, “SIALIC ACID TO SUPPORT SALIVATION” (NESTEC S.A., priority 2008, published 2011).
“Also recorded” adds a separate entry of the source.

Tested on: rats
Assay: Pilocarpine stimulated salivation (cholinergic neuronal activity) in young adult and aged rats after 3 weeks on diet
Type: in vivo, rat
Method: Young adult (3 months) and aged rats (24 months) were fed a semisynthetic diet containing sialic acid at a concentration of 0.15 g/100 g diet (control) or a semi-synthetic diet additionally supplemented with sialic acid to a final concentration of 0.9 g/100 g diet (Sia).
After 3 weeks on the experimental diet neuronal activity of cholinergic neurons was assessed. To this end rats were injected pilocarpine (IP, 1.5 mg/kg body weight for 24 months rats and 2 mg/kg body weight for 3 months rats). Pilocarpine is a muscarinic agonist acting on cholinergic neurons, which leads to salivation. Thus stimulated saliva collection was timed with a chronometer. After about 7 minutes collection was stopped.

SMILES: CC(=O)N[C@H]1[C@H]([C@H](O)[C@H](O)CO)OC(O)(C(=O)O)C[C@@H]1O (some centres unmarked) [sialic acid, N-acetylneuraminic acid]
- stimulated salivation / neuronal activity of cholinergic neurons (stimulated saliva production per time) (aged rats (24 months), diet supplemented with sialic acid to 0.9 g/100 g diet vs control 0.15 g/100 g, 3 weeks, pilocarpine IP 1.5 mg/kg, 1.5 mg/kg): increased stimulated salivation equal to the salivation found in young animals; also recorded: significantly increased neuronal activity; also recorded: reached similar stimulated salivation values as the young animals; also recorded: proper salivation was re-established in aged animals
- Pilocarpine stimulated salivation, aged vs young adult rats (young adult (3 m) and old age (24 m) rats, NeuAc enriched diet vs control diet for 3 weeks, FIG. 2, N=8-10): increased stimulated salivation in aged rats much more efficiently than in young adult rats
